Patent publication US9688669B2, “Oxazolidinones as modulators of mGluR5” (BRISTOL-MYERS SQUIBB COMPANY, priority 2013, dated 2017)

Biological target: human mGluR5A (Homo sapiens (Human), UniProt P41594)
Test: mGluR5 FLIPR Assay
Type: cell-based
Conditions: positive modulator activity, HEK293 (ZF) cells with human mGluR5A and rat GLAST, Ca++ response to ~EC10 l-glutamate
Description: HEK293 (ZF) cells stably transfected with human mGluR5A (pIRES neo) and the rat glutamate-aspartate transporter (GLAST; pIRES puro) are grown in a monolayer culture at 37° C. in 5% CO2 and fed with Minimum Essential Medium (MEM) supplemented with 10% dialysed fetal bovine serum. […] Plates are incubated in dye at 37° C. in 5% CO2 for 60 minutes prior to delivery of test compounds in assay buffer. Test compounds are incubated with cells in the presence of dye for 10 minutes prior to being read on the FLIPR platform (Molecular Devices). A Ca^++ signal is induced in the assay plates via the delivery of an ˜EC10 concentration of the endogenous agonist 1-glutamate; images are acquired at 1 Hz for 100 seconds post-delivery of agonist stimulus. Positive modulator activity (i.e. the ability of test compounds to increase the Ca^++ response to a sub-maximal concentration of agonist) is normalized to a saturating concentration of a known mGluR5 PAM run in each assay plate. An EC50 concentration of test compounds is derived from 4-parameter logistic curve fits of transformed fluoresence data via proprietary software suite.

human mGluR5A, sequence (P41594 other isoform, or with tags, fused parts or gaps): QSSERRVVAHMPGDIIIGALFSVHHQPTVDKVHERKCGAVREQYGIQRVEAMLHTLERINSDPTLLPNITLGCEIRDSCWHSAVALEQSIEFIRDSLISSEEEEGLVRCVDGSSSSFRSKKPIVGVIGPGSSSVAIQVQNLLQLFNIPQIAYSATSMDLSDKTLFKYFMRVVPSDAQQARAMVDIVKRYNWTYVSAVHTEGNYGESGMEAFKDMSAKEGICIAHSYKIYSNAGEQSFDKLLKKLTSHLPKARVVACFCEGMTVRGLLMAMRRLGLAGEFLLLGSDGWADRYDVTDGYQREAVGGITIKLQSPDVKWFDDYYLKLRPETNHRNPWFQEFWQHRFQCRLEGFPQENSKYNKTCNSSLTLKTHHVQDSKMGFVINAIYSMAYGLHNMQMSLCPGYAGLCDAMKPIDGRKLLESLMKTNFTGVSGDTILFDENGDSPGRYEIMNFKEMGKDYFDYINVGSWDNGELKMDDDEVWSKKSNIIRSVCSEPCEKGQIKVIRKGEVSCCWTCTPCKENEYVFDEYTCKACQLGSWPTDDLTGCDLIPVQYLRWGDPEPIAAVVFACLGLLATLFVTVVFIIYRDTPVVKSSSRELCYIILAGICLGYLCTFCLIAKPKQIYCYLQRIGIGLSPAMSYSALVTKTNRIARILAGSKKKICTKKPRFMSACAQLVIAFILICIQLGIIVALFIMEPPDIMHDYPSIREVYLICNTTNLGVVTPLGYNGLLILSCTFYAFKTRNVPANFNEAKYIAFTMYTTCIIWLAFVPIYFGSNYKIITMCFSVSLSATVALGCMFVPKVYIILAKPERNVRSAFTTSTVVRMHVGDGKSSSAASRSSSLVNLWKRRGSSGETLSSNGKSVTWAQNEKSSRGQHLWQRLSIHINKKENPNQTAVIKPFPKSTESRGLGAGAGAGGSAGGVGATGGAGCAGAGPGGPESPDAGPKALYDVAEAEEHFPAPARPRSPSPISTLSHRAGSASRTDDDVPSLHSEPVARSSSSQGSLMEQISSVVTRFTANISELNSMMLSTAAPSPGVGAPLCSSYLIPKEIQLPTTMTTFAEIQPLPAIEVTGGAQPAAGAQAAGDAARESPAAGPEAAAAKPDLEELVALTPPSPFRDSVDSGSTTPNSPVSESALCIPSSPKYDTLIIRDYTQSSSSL

| Structure (SMILES) | EC50 [nM] |
| --- | --- |
| CC1(C)CC1C(O)C#Cc1cncc([C@H]2NC(=O)O[C@@H]2c2cccc(F)c2)c1 (stereo partly shown) [Example 77] | > 1610 |
| O=C1N[C@H](c2cncc(C#CC3CC3)c2)[C@@H](c2cccc(Cl)c2Cl)O1 [Example 125, (4R,5R)-4-(5-(Cyclopropylethynyl)pyridin-3-yl)-5-(2,3-dichlorophenyl)oxazolidin-2-one] | 179 |
| COc1cccc([C@H]2OC(=O)N[C@@H]2c2cccc(C#CC3CC(F)(F)C3)c2)c1 [Example 116, (4R,5R)-4-(3-((3,3-Difluorocyclobutyl)ethynyl)phenyl)-5-(3-methoxyphenyl)oxazolidin-2-one] | > 1610 |
| O=C1N[C@H](c2cncc(C#CCN3CCOCC3)c2)[C@@H](c2cccc(F)c2)O1 [Example 36] | 291 |
| O=C1N[C@H](c2cncc(C#CC34CCCCC3C4)c2)[C@@H](c2cccc(F)c2)O1 (stereo partly drawn) [Example 90, (4R,5R)-4-(5-(Bicyclo[4.1.0]heptan-1-ylethynyl)pyridin-3-yl)-5-(3-fluorophenyl)oxazolidin-2-one] | 377 |
| O=C1N[C@H](c2cncc(C#CCn3ccnc3)c2)[C@@H](c2cccc(F)c2)O1 [Example 33] | 134 |
| O=C1N[C@H](c2cncc(C#CCN3CCCC3=O)c2)[C@@H](c2cccc(F)c2)O1 [Example 47] | > 1610 |
| CCC(O)C#Cc1cncc([C@H]2NC(=O)O[C@@H]2c2cccc(F)c2)c1 (stereo partly shown) [Example 32] | 116 |
| O=C1N[C@H](c2cncc(C#CCc3ccccc3)c2)[C@@H](c2cccc(F)c2)O1 [Example 43] | > 1610 |
| O=C1N[C@H](c2cc(C#CC3CC(F)(F)C3)cnc2F)[C@@H](c2cccc(F)c2)O1 [Example 111, (4R,5R)-4-(5-((3,3-Difluorocyclobutyl)ethynyl)-2-fluoropyridin-3-yl)-5-(3-fluorophenyl)oxazolidin-2-one] | 104 |
| CN(C)CC#Cc1cncc([C@H]2NC(=O)O[C@@H]2c2cccc(F)c2)c1 [Example 79, (4R,5R)-4-(5-(3-(Dimethylamino)prop-1-yn-1-yl)pyridin-3-yl)-5-(3-fluorophenyl)oxazolidin-2-one] | 463 |
| O=C1N[C@H](c2cncc(C#CC3CCOCC3)c2)[C@@H](c2cc(F)ccc2F)O1 [Example 100, (4R,5R)-5-(2,5-Difluorophenyl)-4-(5-((tetrahydro-2H-pyran-4-yl)ethynyl)pyridin-3-yl)oxazolidin-2-one] | 282 |
| CC1(C#Cc2cncc([C@H]3NC(=O)O[C@@H]3c3cccc(F)c3)c2)CCCCC1 [Example 87, (4R,5R)-5-(3-Fluorophenyl)-4-(5-((1-methylcyclohexyl)ethynyl)pyridin-3-yl)oxazolidin-2-one] | > 10800 |
| Cc1cn(CC#Cc2cncc([C@H]3NC(=O)O[C@@H]3c3cccc(F)c3)c2)cn1 [Example 71, (4R,5R)-5-(3-Fluorophenyl)-4-(5-(3-(4-methyl-M-imidazol-1-yl)prop-1-yn-1-yl)pyridin-3-yl)oxazolidin-2-one] | > 3230 |
| COc1cccc([C@H]2OC(=O)N[C@@H]2c2cccc(C#CC3CC3)c2)c1 [Example 80, (4R,5R)-4-(3-(Cyclopropylethynyl)phenyl)-5-(3-methoxyphenyl)oxazolidin-2-one] | > 3000 |
| O=C1N[C@H](c2cncc(C#CCC3COC3)c2)[C@@H](c2cccc(F)c2)O1 [Example 68] | 932 |
| O=C1N[C@H](c2ccnc(C#CC3CC(F)(F)C3)c2)[C@@H](c2ccccc2)O1 [Example 114, (4R,5R)-4-(2-((3,3-Difluorocyclobutyl)ethynyl)pyridin-4-yl)-5-phenyloxazolidin-2-one] | > 3230 |
| O=C1N[C@H](c2cncc(C#CC3(O)CCCCC3)c2)[C@@H](c2cccc(F)c2)O1 [Example 85, (4R,5R)-5-(3-Fluorophenyl)-4-(5-((1-hydroxycyclohexyl)ethynyl)pyridin-3-yl)oxazolidin-2-one] | 1060 |
| CC(C)C#Cc1cncc([C@H]2NC(=O)O[C@@H]2c2cccc(F)c2)c1 [Example 50] | > 3230 |

These reach a lower EC50. Values come first.

| EC50 [nM] | Structure (SMILES) |
| --- | --- |
| 29.5 | CCC(O)CC#Cc1cncc([C@H]2NC(=O)O[C@@H]2c2cccc(F)c2)c1 (stereo partly shown) [Example 21] |
| 67 | CCCCC(O)C#Cc1cncc([C@H]2NC(=O)O[C@@H]2c2cccc(F)c2)c1 (stereo partly shown) [Example 56] |
| 20 | O=C1N[C@H](c2cncc(C#CCC3CCOC3)c2)[C@@H](c2cccc(F)c2)O1 (stereo partly shown) [Example 64] |
| 32.3 | CCCC(O)C#Cc1cncc([C@H]2NC(=O)O[C@@H]2c2cccc(F)c2)c1 (single isomer, unassigned) [Example 22] |
| 43.6 | CCCC(C)C#Cc1cncc([C@H]2NC(=O)O[C@@H]2c2cccc(F)c2)c1 (stereo partly shown) [Example 23] |
| 77.3 | O=C1N[C@H](c2cncc(C#CC(O)C3CC3)c2)[C@@H](c2cccc(F)c2)O1 (single isomer, unassigned) [Example 57] |
| 27.4 | O=C1N[C@H](c2cncc(C#CC(O)CC3CC3)c2)[C@@H](c2cccc(F)c2)O1 (single isomer, unassigned) [Example 74] |
| 29.6 | O=C1N[C@H](c2cncc(C#CCN3CC(F)(F)C3)c2)[C@@H](c2cccc(F)c2)O1 [Example 70, (4R,5R)-4-(5-(3-(3,3-Difluoroazetidin-1-yl)prop-1-yn-1-yl)pyridin-3-yl)-5-(3-fluorophenyl)oxazolidin-2-one] |
| 27.8 | CCOCCC#Cc1cncc([C@H]2NC(=O)O[C@@H]2c2cccc(F)c2)c1 [Example 55] |
| 88.6 | O=C1N[C@H](c2cncc(C#CCCOCC(F)(F)F)c2)[C@@H](c2cccc(F)c2)O1 [Example 67] |
| 5.2 | CCCC#Cc1cncc([C@H]2NC(=O)O[C@@H]2c2cccc(F)c2)c1 [Example 6] |
| 16.4 | O=C1N[C@H](c2cncc(C#CCC3CCCCC3)c2)[C@@H](c2cccc(F)c2)O1 [Example 13] |
| 12.4 | O=C1N[C@H](c2cncc(C#CCC3CCCO3)c2)[C@@H](c2cccc(F)c2)O1 (stereo partly shown) [Example 63] |
| 58.6 | O=C1N[C@H](c2cncc(C#CC3CC(F)(F)C3)c2)[C@@H](c2cc(F)c(F)cc2F)O1 [Example 122, (4R,5R)-4-(5-((3,3-Difluorocyclobutyl)ethynyl)pyridin-3-yl)-5-(2,4,5-trifluorophenyl)oxazolidin-2-one] |
| 16.6 | O=C1N[C@H](c2cncc(C#CC(O)C3CCC3)c2)[C@@H](c2cccc(F)c2)O1 (stereo partly shown) [Example 14] |
| 85.1 | O=C1N[C@H](c2cncc(C#CC(O)C3CCCCC3)c2)[C@@H](c2cccc(F)c2)O1 (stereo partly shown) [Example 30] |
| 27.9 | O=C1N[C@H](c2cncc(C#CC(O)CC3CC3)c2)[C@@H](c2cccc(F)c2)O1 (single isomer, unassigned) [Example 73] |
| 13.6 | O=C1N[C@H](c2cncc(C#CCC3CCOCC3)c2)[C@@H](c2cccc(F)c2)O1 [Example 11] |
